Test results published in patent publication US20240261375A1, “PHARMACEUTICAL COMPOSITION FOR TREATING OR PREVENTING DISORDER ASSOCIATED WITH ADMINISTRATION OF ANTICANCER AGENT” (LTT BIO-PHARMA CO., LTD., priority 2021, published 2024).

Test system: kidney of CIS-treated rats
Experiment: Assessment of kidney disorder caused by cisplatin in rats
Format: in vivo, rat
Settings: CIS 3 mg/kg i.p. 8 doses
Description: Six to eight-week-old male SD rats (from 200 to 400 g) were used. […] A total of eight doses were given with a regimen of twice weekly for four weeks (Days 1, 2, 7, 8, 13, 14, 19, and 20). A solvent for CIS, i.e., physiological saline, was similarly administered to a control group. […] Laboratory animals were divided into three groups: a control group, a CIS administration group, and a group receiving administration of CIS and PC-SOD 1 mg/kg (CIS+PC-SOD administration group) (n=6 per group).
For an experiment of prevention, PC-SOD was administered into the caudal vein from five to 15 minutes after CIS administration in the CIS+PC-SOD administration group. A total of eight doses were given with a regimen of twice weekly for four weeks (Days 1, 2, 7, 8, 13, 14, 19, and 20). A solvent for PC-SOD was similarly administered to the control group and the CIS administration group. The rat kidney weight was measured, and changes in the kidney weight were corrected with body weight. Further, a photograph of the kidney was taken to check changes in size and morphology of the kidney (Scale bar=10 mm).
For pathological analysis, a split was put in the sagittal plane of the collected kidney, and the kidney was fixed with 10% formalin to prepare a paraffin block by using Histos 5 (Milestone) and an embedding center (EG1160, Leica). The sample block was thinly sliced by using a microtome (MR2245, Leica) at a thickness of 3 μm to prepare a slide. The prepared slide was subjected to Periodic acid-Schiff (PAS) staining for assessment of clinical condition and Picrosirius Red staining for assessment of fibrosis. A fibrosis marker α-SMA was stained by an immunostaining method. […] Observation and assessment were performed by observing the whole section. Four to nine images of tissue on the cortical side on which the disorder was induced were randomly taken up, and inflammation, tubular necrosis, protein agglutination in renal tubules, vacuolation, and necrosis were assessed for changes in clinical condition. […] (Scale bar=500 μm (FIG. 11-1), Scale bar=200 μm (FIGS. 11-2 and 11-3)).

## lecithinized superoxide dismutase [PC-SOD]
PC-SOD 1 mg/kg caudal vein, FIG. 10-1, 10-2
  increase in kidney weight and swelling of the kidney caused by CIS: the suppressive effect on an increase in the kidney weight and swelling of the kidney caused by CIS was confirmed
PC-SOD 1 mg/kg, FIG. 11-1
  pathological damage to the kidney caused by CIS (PAS staining): a suppressive effect on pathological damage to the kidney caused by CIS was observed
PC-SOD 1 mg/kg, FIG. 11-2, 11-3
  renal fibrosis caused by CIS (Picrosirius Red and α-SMA staining): decreases of fibrosis-positive regions in the kidney caused by CIS were detected
